The values below come from US12616750B2, “Combination therapy utilizing DNA alkylating agents and ATR inhibitors” (Merck Patent GmbH, priority 2018, dated 2026).

Like-named read-outs stand apart in the source and are kept apart here.

Holding throughout (assay type): cell-based
One test deals with JIMT-1 cells. Put plainly: Cytotoxicity (cell viability, CellTiter-Glo, 6 d). The settings on record: JIMT-1, agent alone, 384-well format (footnote a). Here is the method:
Evaluation was performed using GraphPad Prism version 6.05.
(§1) Dose-matrix combination assays were performed as described above, but performed in opague 384-well plates (2k viable cells/well). Compounds were added using Tecan D300e liquid. Protein solutions were supplemented with 0.3% Tween-20 (final) and diluted to 1 μM. All wells were normalized to the maximum amount of DMSO (maximum 0.4%) or Tween-20 added. Read out of luminescence was performed on Envision 2104 Multilabel Reader (Perkin Elmer) and data were evaluated using Genedata Screener® version 14.0.6-Standard (Genedata AG). Luminescence values were normalized to luminescence of non-treated cells and dose-response was fitted using Smart Fit. Synergy scores were calculated using LOEWE synergy model.
(Cellular ATP, detected with luciferase, serves as a proxy for viable cell number.)

Test [1] deals with HCC-1954 cells. Put plainly: Dose-matrix combination assay (synergy score, Loewe model). The settings on record: combination with AZD6738, HCC-1954, 6 d. Here is the method:
(§2) Dose-matrix combination assays were performed as described above, but performed in opague 384-well plates (2k viable cells/well). Compounds were added using Tecan D300e liquid. Protein solutions were supplemented with 0.3% Tween-20 (final) and diluted to 1 μM. All wells were normalized to the maximum amount of DMSO (maximum 0.4%) or Tween-20 added. […] Luminescence values were normalized to luminescence of non-treated cells and dose-response was fitted using Smart Fit. Synergy scores were calculated using LOEWE synergy model.
(§3) The screening of synergistic drug combinations can be accomplished by performing a dose-matrix assay. Therefore, two drugs are serial diluted and mixed at every dose level, yielding a dose-matrix. The drug combination can be additive if the effects of the combination are identical to the added effects of the single agents. However, the effects of the combination might also be stronger than the activity of the single agents. This scenario is termed synergy, whereas weaker combination effects compared to the single agents are termed antagonism. A dose-matrix assay is depicted schematically in FIG. 2 which illustrates the outcomes of a dose-matrix assay: additivity, antagonism and synergy.
(§4) The screening was conducted by serial diluting the duocarmycin derivative DUBA (10) and the DDR inhibitors. […] DUBA was combined in a dose-matrix assay with hycanthone. The cell viability was measured after 6 d of treatment using the CellTiter-Glo assay kit. The signals of the cell viability assay were normalized to untreated cells and fitted. […] By subtracting the modeled data from the fitted data, an excess matrix was generated. The excess matrix can be considered as a visualization of the differences between model and actual data which also highlights spots of either high synergy or antagonism. The quantification of the combination effects, however, was performed by calculating synergy scores. […] Besides synergy score, the potency of the drugs in monotherapy was obtained from these experiments. […] The potency was obtained from this dose-response curve.
(§5) The scattering of S was determined in a sham control experiment to define a cutoff for classifying a combination as truly synergistic or antagonistic. Thus seven different compounds were combined with itself on four different cell lines and the three-σ confidence interval was calculated around the mean of the measurement. […] For the sake of convenience, the cutoff was set to a value of ±1.
(§6) Synergy scores (S) were obtained from the combination experiments that indicated additivity […] if model and actual response were equal. […] The magnitude of the score determined the extent of the combination effects.

Test [2] relates to HCC-1954 cells. Description: Cytotoxicity (cell viability, CellTiter-Glo, 6 d). The settings on record: Homo sapiens. Here is the method: as §2
After 6 d of treatment, CellTiter-Glo luminescent assay was performed and the luminescence was read on Envision Reader. The results were analyzed using GeneData Screener as described before.

Test [3] relates to NCI-N87 cells. Put plainly: Dose-matrix combination assay (synergy score, Loewe model). The settings on record: combination with AZD6738; NCI-N87. Here is the method:
as §1, §3

Test [4] has as its system MDA-MB-453 cells. Described as above. The settings on record: combination with AZD6738; MDA-MB-453. Here is the method: as §1, §3
The subject of test [5] is HCC-1954 cells treated with ATR, CHK1 or non-targeting siRNA. Description: Cytotoxicity of duocarmycins on siRNA knock-down cells. To be noted: 6 d. Here is the method: 0.7*10^6 viable cells were seeded in a T25 flask, 5 mL of medium were added and the cells were incubated at 37° C. and 5% C02 overnight. The transfection was carried out as follows: 2.5 μL Lipofectamine RNAiMAX were diluted with 247.5 μL OptiMEM and a 0.3 μM siRNA (ATR, CHK1 or non-targeting siRNA) solution was prepared in OptiMEM to yield 250 μL final volume. The solutions were mixed and incubated for 20 min at room temperature, followed by the addition of 500 μL cell culture medium. The cell culture medium was removed from the cells, washed with PBS (3×) and the transfection mix was added to the cells. After 4 h incubation at 37° C. and 5% CO2, the transfection mix was removed in vacuo. The cells were washed with medium (3×), 5 mL medium were added and the cells were incubated for 60 h at 37° C. and 5% CO2. Then cells were detached, and seeded into 384-well plates. Then a cytotoxicity assay was performed as described before, but with one compound only
Therefore, HCC-1954 cells were seeded into T25 flasks and left to adhere overnight. Then the cells were washed with PBS, and subsequently ATR, CHK1 and non-targeting siRNA were added. The cells were incubated for 4 h, washed with medium and incubated for 3 d. Cells were detached and seeded into 384-well plates. They were treated with duocarmycins for 6 d. Cell viability was determined via CellTiter-Glo assay kit, and data were evaluated using GraphPad Prism. The knock-down efficiency was evaluated using quantitative PCR.

The subject of test [6] is MDA-MB-468 cells. Description: Cytotoxicity (cell viability, CellTiter-Glo, 6 d).
Test [7] concerns NCI-N87 cells. Put plainly: Cytotoxicity (cell viability, CellTiter-Glo, 6 d). To be noted: Homo sapiens; NCI-N87, agent alone, 384-well format (footnote a). As for the experimental part: as §2
For test [8], the system named is MDA-MB-453 cells. Description: Cytotoxicity (cell viability, CellTiter-Glo, 6 d). Here is the method:
as §2

For test [9], the system named is MDA-MB-468 cells. Description: Dose-matrix combination assay (synergy score, Loewe model). To be noted: combination with AZD6738; MDA-MB-468 (EGFR-positive), 6 d. As for the experimental part:
as §2, §3, §4, §5, §6

The subject of a further test is MCF7 cells. Put plainly: Cytotoxicity (cell viability). To be noted: MCF7 (EGFR −, MET −), Table 10. As for the experimental part: (§7) Curve-shift assays were conducted as follows: The cell number and viability was determined using ViCell™-XR (Beckman Coulter) and seeded in opague 96-well plate (10k viable cells/well). After seeding, the plate was incubated (37° C., 5% C02) in a humid chamber overnight. Compounds were diluted in the appropriate medium, added to the cells and the plate was incubated (37° C., 5% CO2, 6 d) in a humid chamber. After 30 min equilibration at room temperature, CellTiter-Glo reagent (Promega) was added. After the plate was shaken (3 min, 550 rpm, rt) it was incubated (10 min, rt) and luminescence was read on a synergy 4 plate reader (BioTek). Evaluation was performed using GraphPad Prism version 6.05. Therefor luminescence values were normalized to luminescence values of non-treated cells and dose-response was fitted with 4-point logistic fit.
as §1

The test system of the next test is A431 cells. Description: Cytotoxicity (cell viability). To be noted: A431 (EGFR ++, MET +), Table 10. Here is the method:
as §7, §1

In test [10] the test system is A549 cells. Put plainly: Cytotoxicity (cell viability). To be noted: A549 (EGFR +, MET +), Table 10. As for the experimental part:
as §7, §1

Test [11] deals with A549 cells. Put plainly: Dose-matrix combination assay (synergy score, Loewe model). The settings on record: combination with AZD6738; A549 (EGFR-positive), 6 d. Here is the method: as §1, §3

For the compound `Cc1cccc2c(O)cc3c(c12)[C@H](CCl)CN3C(=O)c1cn2cc(NC(=O)c3ccc(O)cc3)ccc2n1` [compound 10], the IC50 is 3 ± 2 nM with JIMT-1 cells (Homo sapiens); 0.3 ± 0.07 nM in the test on HCC-1954 cells [2] (HCC1954, HCC-1954, agent alone, 384-well format (footnote a)); 0.2 ± 0.1 nM in the test with HCC-1954 cells [2] (HCC1954, duocarmycin variant alone, HCC-1954, mean ± SD or mean (individual values)); 0.25 nM in test [5] (Homo sapiens, HCC1954, 144 h, ATR knock-down HCC-1954 cells); 0.06 ± 0.02 nM in the test with MDA-MB-468 cells [6] (Homo sapiens, MDA-MB-468); 1.2 ± 0.5 nM in the test with NCI-N87 cells [7]. Besides, the IC50 in the test on MDA-MB-453 cells [8] (Homo sapiens, MDA-MB-453) was 0.3 ± 0.1 nM. The “Synergy score S” value in the test on HCC-1954 cells [1] is reported as 6.7 (6.3, 7.2) 6.9 ± 0.7; in the test on HCC-1954 cells [1] (listed as DUBA), 6.9±0.7; with HCC-1954 cells [1] (listed as DUBA (10)), 6.9±0.7; in the test with NCI-N87 cells [3], 3.1+0.6; in the test on MDA-MB-453 cells [4], 5.0±0.5.

Take `CN(C)CCOc1ccc2[nH]c(C(=O)N3C[C@@H](CCl)c4c3cc(O)c3ccccc43)cc2c1` [compound 38]: the IC50 in the test with JIMT-1 cells was found to be 0.14 nM; in the test on MCF7 cells it was 0.164 ± 0.004 nM; in the test on A431 cells, 0.055 ± 0.005 nM; in the test on A549 cells [10], 0.1 ± 0.1 nM; in [5] (ATR knock-down HCC-1954 cells) it was 0.014 nM; in [5] (CHK1 knock-down HCC-1954 cells) it was 0.133 nM. Further, the IC50 in the test on MDA-MB-468 cells [6] (MDA-MB-468 (EGFR +++, MET +), Table 10, read-out: IC50) is 0.02 ± 0.01 nM; with MDA-MB-468 cells [6] (MDA-MB-468, agent alone, 384-well format (footnote a), read-out: IC50), 0.02 ± 0.01 nM; with MDA-MB-453 cells [8] (MDA-MB-453, agent alone, 384-well format (footnote a), read-out: IC50), 0.14 nM. Further, the “Synergy score S” value with HCC-1954 cells [1] is reported as 5.6 ± 1.7 5.1 (4.8, 5.3); in the test with HCC-1954 cells [1] (listed as DDM) it was 5.6+1.7; with HCC-1954 cells [1] (listed as DDM (38)), 5.6±1.7; in the test with MDA-MB-468 cells [9], 6.0±1.0; in the test with A549 cells [11] it was 2.0±1.1.

Broadly, the IC50 is the point on the concentration scale where inhibition reaches its midpoint.
